Laboratory results from ChEMBL document CHEMBL1201862, “PubChem BioAssay data set” (2004).
Activity calls are given as the source filed them.

Experiments:
[1] = HEK-293T cell viability reduction – luminescence, B-cell screen hits, cytotoxicity control for BCR NF-kB inhibitor project, dose response (AID 489021); format: functional, cell-based;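 note: HEK-293T cells carrying an NF-kB luciferase reporter; cells exposed to compound for about 14 hours before viability readout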
[2] = biological target: T1, Short transient receptor potential channel 4 (Mus musculus, UniProt Q9QUQ5); assay: block of DAMGO-driven TRPC4 calcium entry – cell-based, HEK293 TRPC4/mu-opioid, Fluo-4 calcium, dose response (AID 434942); format: functional;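 note: potency of inhibitors blocking the TRPC4 calcium response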
T1 sequence (Q9QUQ5 whole entry): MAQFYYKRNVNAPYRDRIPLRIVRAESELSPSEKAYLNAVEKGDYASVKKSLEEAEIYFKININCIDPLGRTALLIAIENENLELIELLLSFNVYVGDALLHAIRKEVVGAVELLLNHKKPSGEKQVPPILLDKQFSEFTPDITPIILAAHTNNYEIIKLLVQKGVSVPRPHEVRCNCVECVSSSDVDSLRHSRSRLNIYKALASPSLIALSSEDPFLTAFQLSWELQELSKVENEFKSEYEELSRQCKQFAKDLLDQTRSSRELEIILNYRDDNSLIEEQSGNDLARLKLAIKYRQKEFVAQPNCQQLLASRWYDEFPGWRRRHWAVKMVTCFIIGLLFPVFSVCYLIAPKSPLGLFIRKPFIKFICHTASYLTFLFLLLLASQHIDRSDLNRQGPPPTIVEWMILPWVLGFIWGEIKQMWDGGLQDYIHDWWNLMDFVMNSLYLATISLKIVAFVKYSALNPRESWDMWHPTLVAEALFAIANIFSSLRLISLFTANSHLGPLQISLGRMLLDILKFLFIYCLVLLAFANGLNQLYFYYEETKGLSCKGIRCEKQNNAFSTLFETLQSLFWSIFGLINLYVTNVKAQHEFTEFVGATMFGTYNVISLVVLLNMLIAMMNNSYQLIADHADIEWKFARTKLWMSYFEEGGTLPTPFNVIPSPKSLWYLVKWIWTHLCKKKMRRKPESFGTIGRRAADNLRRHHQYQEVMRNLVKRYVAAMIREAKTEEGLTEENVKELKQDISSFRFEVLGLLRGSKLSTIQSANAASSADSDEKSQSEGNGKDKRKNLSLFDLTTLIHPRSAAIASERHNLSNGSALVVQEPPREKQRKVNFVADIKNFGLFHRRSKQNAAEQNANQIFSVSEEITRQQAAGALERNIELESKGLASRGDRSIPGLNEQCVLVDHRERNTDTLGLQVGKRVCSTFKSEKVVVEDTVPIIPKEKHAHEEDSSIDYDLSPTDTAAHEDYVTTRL

HEK293 [3] = assay: NOD2 signaling inhibitors in MDP-stimulated cells, cell-based, uHTS, luminescence (AID 2001); format: functional; settings: Homo sapiens
HEK293 [4] = assay: cells; format: functional, cell-based; settings: Homo sapiens
HEK293 [5] = assay: inhibition of NOD1-driven NF-kB reporter – cell-based, luminescence, uHTS, primary screen (AID 1578); format: functional; settings: Homo sapiens
HEK293 [6] = assay: cells; format: functional, cell-based; settings: Homo sapiens; remark: listed apart in the source
[7] = biological target: Eukaryotic translation initiation factor 4E (Mus musculus, UniProt P63073); assay: blockers of eIF4G binding by eIF4E – biochemical, TR-FRET, dose response (AID 855); format: functional;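 note: potency for disrupting eIF4E binding to eIF4GI seen as loss of FRET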
Chain of Eukaryotic translation initiation factor 4E (P63073 whole entry): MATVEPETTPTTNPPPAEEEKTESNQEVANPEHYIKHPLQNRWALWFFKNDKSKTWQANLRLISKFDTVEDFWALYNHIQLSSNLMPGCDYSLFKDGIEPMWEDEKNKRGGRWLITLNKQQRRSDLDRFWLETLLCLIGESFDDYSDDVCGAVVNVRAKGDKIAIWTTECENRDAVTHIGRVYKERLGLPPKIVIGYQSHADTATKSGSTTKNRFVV

Genome polyprotein = Genome polyprotein (dengue virus type 2, UniProt P29990); assay: flavivirus cap methylation enzyme inhibition – biochemical, confirmation dose response, primary screen (AID 588689); format: functional
Chain of Genome polyprotein (P29990 2492-3391 limits assumed): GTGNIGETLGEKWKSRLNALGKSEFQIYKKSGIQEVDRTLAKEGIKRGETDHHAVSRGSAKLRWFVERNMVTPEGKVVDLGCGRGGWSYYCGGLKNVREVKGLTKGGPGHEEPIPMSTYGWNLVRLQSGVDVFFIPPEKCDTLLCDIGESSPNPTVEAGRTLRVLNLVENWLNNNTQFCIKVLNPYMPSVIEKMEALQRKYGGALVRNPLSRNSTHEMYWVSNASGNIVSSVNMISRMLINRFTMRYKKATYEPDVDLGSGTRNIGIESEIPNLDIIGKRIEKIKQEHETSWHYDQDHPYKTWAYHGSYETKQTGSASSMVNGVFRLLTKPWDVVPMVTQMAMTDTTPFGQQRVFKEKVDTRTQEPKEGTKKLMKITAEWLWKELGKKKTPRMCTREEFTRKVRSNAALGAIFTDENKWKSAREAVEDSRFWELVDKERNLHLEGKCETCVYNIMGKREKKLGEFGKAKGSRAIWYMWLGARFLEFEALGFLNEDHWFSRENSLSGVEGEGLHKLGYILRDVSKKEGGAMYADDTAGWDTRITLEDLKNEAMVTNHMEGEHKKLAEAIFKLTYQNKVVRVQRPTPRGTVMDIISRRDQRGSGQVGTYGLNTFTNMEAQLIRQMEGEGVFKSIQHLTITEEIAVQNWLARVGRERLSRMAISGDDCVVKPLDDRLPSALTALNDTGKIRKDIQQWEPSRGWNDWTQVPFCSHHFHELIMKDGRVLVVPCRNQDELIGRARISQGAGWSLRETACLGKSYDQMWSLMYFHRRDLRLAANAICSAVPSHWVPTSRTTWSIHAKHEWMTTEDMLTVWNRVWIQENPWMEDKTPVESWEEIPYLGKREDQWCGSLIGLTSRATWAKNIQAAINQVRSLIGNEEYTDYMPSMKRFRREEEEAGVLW

[8] = luciferase reporter signal suppression in cells – H4 neuroglioma cells, luminescence, dose response (AID 1990); format: functional, cell-based
[9] = alpha-synuclein stem-loop luciferase translation blockers – H4 neuroglioma cells, luminescence, confirmation (AID 1988); format: functional, cell-based
[10] = Luminescence Cell-Based Dose Response HTS to Identify Inhibitors of 5'UTR Stem-Loop Driven Prion Protein mRNA Translation in H4 Neuroglioblastoma Cells. [Related pubchem assays: 1827 (Project Summary), 1813 (Primary HTS)]; format: functional
Paired box protein Pax-8 = Paired box protein Pax-8 (Homo sapiens, UniProt Q06710); assay: PAX8 transcriptional activity inhibition in RMG-I – RMG-I cells, luciferase, cherry-pick, dose response (AID 687027); format: functional, cell-based;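 note: luciferase reporter driven by Pax8 target thyroperoxidase promoter measured by SteadyGlo luminescence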
Chain of Paired box protein Pax-8 (Q06710 whole entry): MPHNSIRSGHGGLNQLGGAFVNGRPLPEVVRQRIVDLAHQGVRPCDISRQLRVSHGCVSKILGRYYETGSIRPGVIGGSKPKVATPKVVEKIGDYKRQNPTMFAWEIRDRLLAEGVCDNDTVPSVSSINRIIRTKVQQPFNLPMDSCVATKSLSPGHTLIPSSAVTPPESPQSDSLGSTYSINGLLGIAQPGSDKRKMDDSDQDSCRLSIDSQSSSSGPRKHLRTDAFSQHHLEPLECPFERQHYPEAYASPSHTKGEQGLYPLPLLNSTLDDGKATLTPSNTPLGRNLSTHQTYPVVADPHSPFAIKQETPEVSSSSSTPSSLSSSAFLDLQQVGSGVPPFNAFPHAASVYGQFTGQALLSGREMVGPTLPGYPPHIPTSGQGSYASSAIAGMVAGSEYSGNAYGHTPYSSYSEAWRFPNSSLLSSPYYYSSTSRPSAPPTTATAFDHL

[11] = Luminescence Cell-Based Dose Response HTS to Identify Activators of Luciferase Translation or Activity in H4 […] Cells. [Related pubchem assays: 1829 (Project Summary), 1814 (Primary HTS)]; format: functional
[12] = HIV-1 AD8 envelope cell-cell fusion blockers – cherry-pick, dose response (AID 652062); format: functional, cell-based;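 note: luciferase signal from cell-cell fusion driven by HIV-1 clade B AD8 Env; potency is for inhibitors of fusion seen as a drop in luminescence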
[13] = Luminescence Cell-Based Dose Confirmation HTS to Identify Activators of 5'UTR Stem-Loop Driven Alpha-Synuclein mRNA Translation in H4 Neuroglioblastoma Cells. [Related pubchem assays: 1829 (Project Summary), 1814 (Primary HTS)]; format: functional
H4 = assay: Luminescence Cell-Based Dose Response HTS to Identify Activators of 5'UTR Stem-Loop Driven Prion Protein mRNA Translation in H4 Neuroglioblastoma Cells. [Related pubchem assays: 1829 (Project Summary), 1814 (Primary HTS)]; format: functional; settings: Homo sapiens
[14] = viability loss in CEM21 cells – cell-based, CellTiter-Glo luminescence, cherry-picked, cytotoxicity control for viral fusion inhibitor project, dose response (AID 652042); format: functional;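 note: potency for signal decrease meaning cytotoxicity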
[15] = off-target signal loss in HeLa-CEM21 co-culture – HeLa F-luc CTL cells, cherry-picked, counter-screen for HIV-1 Env fusion inhibitor project, dose response (AID 652040); format: functional, cell-based;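 note: potency for signal decrease marking cytotoxic or nonspecific inhibition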
[16] = NIH3T3 cell viability loss – ATP luminescence, mouse fibroblasts, counter-screen, dose response (AID 2010); format: functional, cell-based;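 note: cells exposed to compound for about 90 hours before reading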
[17] = Trypanosoma cruzi growth suppression in host cells – NIH3T3 host cells, beta-gal luminescence, confirmation (AID 2044); format: functional, cell-based;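 note: intracellular parasites grown in NIH/3T3 mouse fibroblasts as host cells; luminescent beta-galactosidase reporter signal from transgenic T. cruzi replicating inside host cells; inhibitors lower the luminescence signal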
[18] = biological target: T2, DNA repair protein RAD52 homolog (Homo sapiens, UniProt P43351); format: functional, biochemical
T2 sequence (P43351 whole entry): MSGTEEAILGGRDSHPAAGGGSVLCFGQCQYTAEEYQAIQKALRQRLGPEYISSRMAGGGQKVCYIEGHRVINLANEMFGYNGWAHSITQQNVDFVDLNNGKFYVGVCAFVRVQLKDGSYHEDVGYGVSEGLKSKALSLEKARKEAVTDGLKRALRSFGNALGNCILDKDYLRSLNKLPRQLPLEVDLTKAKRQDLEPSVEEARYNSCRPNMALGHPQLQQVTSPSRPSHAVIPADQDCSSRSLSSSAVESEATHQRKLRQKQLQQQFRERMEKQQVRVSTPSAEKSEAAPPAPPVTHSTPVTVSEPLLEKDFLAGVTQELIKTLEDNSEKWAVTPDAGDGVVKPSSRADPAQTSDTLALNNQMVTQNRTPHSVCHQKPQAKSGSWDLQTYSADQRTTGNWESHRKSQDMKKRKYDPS

[19] = NIH-3T3 fibroblast cytotoxicity, dose response, cytotoxicity control, cell-based, fluorescence, Alamar Blue, secondary assay (AID 2327); format: functional;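 note: NIH-3T3 mouse fibroblasts cultured with fluconazole at 8 µg/mL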
Nonstructural protein 1 = Nonstructural protein 1 (Influenza A virus, UniProt Q194T2); format: functional, Influenza A virus (A/California/07/2009(H1N1))
Chain of Nonstructural protein 1 (Q194T2 whole entry): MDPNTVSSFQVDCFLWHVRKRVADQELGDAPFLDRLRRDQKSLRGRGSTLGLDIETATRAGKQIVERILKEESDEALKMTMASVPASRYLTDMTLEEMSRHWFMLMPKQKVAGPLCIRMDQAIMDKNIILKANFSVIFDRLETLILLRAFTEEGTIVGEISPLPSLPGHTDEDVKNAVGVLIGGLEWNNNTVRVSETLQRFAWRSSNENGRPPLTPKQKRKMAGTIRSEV

[20] = fluconazole-exposed Candida albicans growth modulators – fluorescence, retest, confirmation (AID 2467); format: functional, cell-based
INS1 = assay: INS-1E survival protection against cytokine death – cell-based, luminescence, retest, dose response (AID 449756); format: functional; settings: Rattus norvegicus;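 note: cell death triggered by IL-1 beta plus TNF-alpha plus IFN-gamma mixture; protective hits raise ATP signal compared with cytokine alone wells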
[21] = viability loss in HEK293 cells – cell-based, plate reader, cherry-picked samples, cytotoxicity control, dose response (AID 743446); format: functional
[22] = toxicity toward HepG2 liver cells – cell-based, plate reader, cherry-pick, antagonist series, cytotoxicity control, dose response (AID 743416); format: functional
[23] = A549 cell cytotoxicity, dose response, cytotoxicity control, plate reader, cherry-pick, antagonist series (AID 743412); format: functional, cell-based
[24] = blockade of melanocortin 4 receptor signaling – cell-based, plate reader, cherry pick, counter-screen for LGR2 antagonist project, dose response (AID 743444); format: functional;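 note: transfected HEK 293 cells stimulated with alpha-MSH peptide; potency of inhibitors of the alpha-MSH evoked signal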
[25] = Luminescence Cell-Based Dose Retest to Confirm Inhibitors of Cancer Stem Cells. [Related pubchem assays (depositor defined):AID2717, AID2721]; format: functional; settings: Homo sapiens
[26] = blockers of bursicon-stimulated LGR2 cAMP reporter – cell-based, HEK293, CRE-luciferase reporter, cherry pick, set 2, dose response (AID 743343); format: functional;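 note: transfected cells were stimulated with diluted bursicon conditioned medium after compound addition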
HEK293 [27] = assay: EBV LMP1 TES2 canonical NF-kB signalling blockers – cell-based, HEK293, luciferase, cherry-pick, dose response (AID 588343); format: functional; settings: Homo sapiens

With `CCn1c(=O)cc(OCC(=O)NCc2ccc(C)o2)c2ccccc21` as the compound, how does the IC50 [1] read?
The IC50 was > 80 µM (inactive).

For `O=C(C[N+]1(CC#Cc2ccccc2)CCCCC1)c1ccc(Cl)cc1`, which EC50 [2] is on record?
Its EC50 is 7.5 µM (active).

For `Oc1cc(-c2ccccc2)nc2cc(-c3ccc(Br)cc3)nn12`, which IC50 (HEK293 [3]) is on record?
The IC50 was 5.12 µM (inactive).

And the IC50 (HEK293 [4])?
The IC50 was 16.9 µM (active).

And the EC50 (HEK293 [5])?
The EC50 was 10.8 µM (active).

What about the IC50 (HEK293 [6]) of the same compound?
Its IC50 is > 20 µM (inactive).

Which IC50 [7] does the source give for `Cc1ccc(C)c(NC(S)=NCCN(C2CCCCC2)C2CCCC2)c1` here?
The IC50 was 50 µM (inactive).

Which IC50 (Genome polyprotein) does the source give for `CCCCOc1ccc(Nc2cc(Cl)ccc2C(=O)O)cn1` here?
The IC50 was 59.8 µM (active).

What about the EC50 [2] of the same compound?
Its EC50 is 10.6 µM (active).

For `O=C(NCCC1CCCCN1S(=O)(=O)c1ccc(Cl)cc1)C(=O)NCc1ccncc1` (centres undefined), which EC50 [8] is on record?
Its EC50 is 15.5 µM (active).

What about the IC50 [1] of the same compound?
Its IC50 is > 80 µM (inactive).

And the EC50 [9]?
Its EC50 is 9.38 µM (active).

What about the EC50 [10] of the same compound?
The EC50 was 20.8 µM (active).

What about the AC50 (Paired box protein Pax-8) of the same compound?
Its AC50 is 3.27 µM (active).

With `Cc1nnc(SC(=O)N2c3ccccc3Sc3ccccc32)s1` as the compound, how does the EC50 [11] read?
Its EC50 is > 60 µM (not active).

And the AC50 [12]?
The AC50 was 3.79 µM (active).

What about the EC50 [13] of the same compound?
The EC50 was > 120 µM (not active).

What about the EC50 (H4) of the same compound?
The EC50 was > 120 µM (not active).

And the AC50 [14]?
Its AC50 is 10.6 µM (active).

And the AC50 [15]?
Its AC50 is 30.8 µM (active).

With `CCOC(=O)c1c(C)n(CC(O)CN(C)C)c2cc(Br)c(OC)cc12` (centres undefined) as the compound, how does the EC50 [16] read?
The EC50 was > 60 µM (not active).

And the EC50 [17]?
Its EC50 is 0.685 µM (active).

And the AC50 [18]?
The AC50 was 10.1 µM (active).

With `Cc1cc(C)cc(NC(=N)Nc2nc(C)cc(C)n2)c1` as the compound, how does the EC50 [2] read?
The EC50 was 2.99 µM (active).

With `Cc1ccc(C)c(OCc2ccc(C(=O)NN)o2)c1` as the compound, how does the IC50 [1] read?
The IC50 was > 80 µM (inactive).

What does the source list for `N#CC1=C(N)Oc2c(ccc3cccnc23)C1c1cccnc1` (centres undefined)?
EC50 [19]: 22.1 µM (active); IC50 (Nonstructural protein 1): 56.6 µM (active); EC50 [20]: 1.18 µM (active); AC50 (INS1): 3.17 µM (active)

What does the source list for `O=C(CSc1[nH]cnc2nncc1-2)Nc1nc(-c2ccc(F)c(F)c2)cs1`?
AC50 [21]: > 52 µM (inactive); AC50 [22]: > 52 µM (inactive); AC50 [23]: 46.1 µM (active)

Which AC50 [21] does the source give for `COc1cccc(/C=C/c2ccc3ccccc3n2)c1OC(C)=O` here?
The AC50 was 30.1 µM (active).

What about the AC50 [24] of the same compound?
The AC50 was 2.59 µM (active).

And the AC50 [22]?
The AC50 was 33.3 µM (active).

What about the AC50 [23] of the same compound?
Its AC50 is 25.3 µM (active).

What about the AC50 [25] of the same compound?
The AC50 was 6.67 µM (active).

What about the AC50 [26] of the same compound?
Its AC50 is 2.77 µM (active).

And the AC50 (HEK293 [27])?
The AC50 was 1.87 µM (active).
